# Read-outs that look alike come from different tables or passages of the source.
# Experiments:
# WEE1 kinase enzyme = target: T1, WEE1 kinase enzyme (Homo sapiens, UniProt P30291); test: WEE1 IC50 determination, LanthaScreen Terbium Labeled TR-FRET kinase assay; type: biochemical; conditions: WEE1 enzyme 1 nM, ATP 10 μM, 1 h
# T1 construct: purchased Invitrogen, Life Technologies, Grand Island, N.Y. PR7373A
# Method: IC50 values of compounds against WEE1 kinase enzyme were determined by LanthaScreen™ Terbium Labeled TR-FRET assay. Kinase assays were performed in 1× kinase buffer (#PV6135, Invitrogen, Life Technologies, Grand Island, N.Y.) where total reaction volume is 10 μL in low-volume 384-well plates (#4511, Corning). Serially diluted compounds (3-fold) were incubated with WEE1 Enzyme (1 nM) (#PR7373A, Invitrogen, Life Technologies, Grand Island, N.Y.) for 10 min; a mixture of ATP (10 μM) (#A1852, Sigma, St. Louis, Mo.) and fluorescent-PolyGT substrate (200 nM) (#PV3610, Invitrogen, Life Technologies, Grand Island, N.Y.) was added and incubated in dark at room temperature for 1 h. After 1 h, 10 μL stop solution containing terbium labeled antibody (4 nM) (#PV3529, Invitrogen, Life Technologies, Grand Island, N.Y.) and EDTA (#E5134, Sigma, St. Louis, Mo.) (20 mM) in TR-FRET dilution buffer (#PV3574, Invitrogen, Life Technologies, Grand Island, N.Y.) was added. Readings were taken in a Synergy Neo plate reader (BioTek, Winooski, Vt.) at single excitation of 340 nm and dual emission at 495 nm and 520 nm respectively.
# The % activity of test samples was calculated as (Sample−Min)*100/(Max−Min). [Max: DMSO control, complete reaction with enzyme & DMSO and Min: No enzyme & DMSO]. […]
# U-87 MG = test: Cytotoxicity assay (resazurin) in U-87 MG cell line; type: cell-based; conditions: Homo sapiens, read-out: U-87 MG IC50
# Method: (§1) A427 (HTB-53; ATCC), a lung epithelial cell line, was seeded in medium (MEM, 41090101; Gibco) at a cell count of 1500 cells per 100 μL per well in a 96 well edge plate (167425; ThermoFisher). Cells were allowed to grow at 37° C. for 24 hr in 5% CO2 environment (culture conditions) in a Nuaire incubator (humidified). Serially diluted test compounds (100 μL) within the desired testing concentration ranges were added to the culture plate and the cells further incubated in culture conditions for 72 hr. The experiment was terminated at the designated incubation time by replacing the medium with 100 μL of 1 mM of resazurin (R7017; Sigma) prepared in culture medium, and the plates were further incubated in culture conditions for 4-6 hr. Fluorescence was recorded using a multimodal plate reader (Biotek Synergy Neo) at an excitation wavelength of 535 nm and emission wavelength of 590 nm to obtain relative fluorescence units. Data were analysed as follows: the background fluorescence (blank containing only medium) value was subtracted from each reading and normalized with the vehicle control (DMSO treated cells) to obtain percent survival/proliferation. […] Potency of compounds in other cell lines (such as A549, As-Pc-1, Panc 10.05, A172, U-87 MG) may be determined in an analogous manner.
# As-Pc-1 = test: Cytotoxicity assay (resazurin) in As-Pc-1 cell line; type: cell-based; conditions: Homo sapiens, read-out: As-Pc-1 IC50
# Method: as §1
# T1 sequence (P30291 whole entry): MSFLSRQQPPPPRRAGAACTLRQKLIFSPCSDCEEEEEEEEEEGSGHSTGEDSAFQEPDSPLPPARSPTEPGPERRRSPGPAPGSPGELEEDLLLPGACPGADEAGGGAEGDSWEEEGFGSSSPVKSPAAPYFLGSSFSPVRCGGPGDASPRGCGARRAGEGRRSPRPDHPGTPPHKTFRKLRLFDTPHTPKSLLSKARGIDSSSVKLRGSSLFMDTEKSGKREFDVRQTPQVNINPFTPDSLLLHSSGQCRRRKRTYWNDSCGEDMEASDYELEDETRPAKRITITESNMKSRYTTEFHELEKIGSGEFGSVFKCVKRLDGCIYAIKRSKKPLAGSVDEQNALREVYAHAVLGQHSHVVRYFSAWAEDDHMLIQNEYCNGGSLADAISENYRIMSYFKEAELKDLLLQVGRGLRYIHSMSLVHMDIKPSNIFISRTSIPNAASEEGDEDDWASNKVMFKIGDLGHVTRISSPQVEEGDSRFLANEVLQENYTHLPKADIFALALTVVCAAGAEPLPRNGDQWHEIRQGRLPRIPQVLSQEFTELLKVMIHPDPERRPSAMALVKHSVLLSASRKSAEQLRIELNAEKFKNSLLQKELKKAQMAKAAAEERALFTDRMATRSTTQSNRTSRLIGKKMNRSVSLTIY
SMILES,IC50 (WEE1 kinase enzyme) [nM],"IC50 (U-87 MG; U-87 MG cells, 72 hr incubation, inhibition of proliferation) [µM]","IC50 (As-Pc-1; ASPC1, As-Pc-1 cells, 72 hr incubation, inhibition of proliferation) [µM]","IC50 (U-87 MG; U-87 MG, 72 h) [µM]","IC50 (As-Pc-1; ASPC1, 72 h) [µM]"
"CC1Oc2nc(Nc3ccc4c(c3)CCNC4(C)C)ncc2C(=O)N1c1c(Cl)cccc1Cl (stereo not drawn) [1.4, 3-(2,6-dichlorophenyl)-7-((1,1-dimethyl-1,2,3,4-tetrahydroisoquinolin-6-yl)amino)-2-methyl-2,3-dihydro-4H-pyrimido[5,4-e][1,3]oxazin-4-one]",127,10.9,8.5,–,–
"CC1Oc2nc(Nc3ccc4c(c3)CNCC4)ncc2C(=O)N1c1c(Cl)cccc1Cl (stereo not drawn) [1.44, 3-(2,6-dichlorophenyl)-2-methyl-7-((1,2,3,4-tetrahydroisoquinolin-7-yl)amino)-2,3-dihydro-4H-pyrimido[5,4-e][1,3]oxazin-4-one]",133,–,–,11.4,19.5
